{"source": "ChEMBL document CHEMBL4138309", "about": "“Discovery of β-Adrenergic Receptors Blocker-Carbonic Anhydrase Inhibitor Hybrids for Multitargeted Antiglaucoma Therapy” (J Med Chem, 2018)", "key": {"Carbonic anhydrase 9": {"target": "Carbonic anhydrase 9 (Homo sapiens, UniProt Q16790)"}, "[1]": {"target": "Beta-2 adrenergic receptor (Homo sapiens, UniProt P07550)", "sequence (P07550 whole entry)": "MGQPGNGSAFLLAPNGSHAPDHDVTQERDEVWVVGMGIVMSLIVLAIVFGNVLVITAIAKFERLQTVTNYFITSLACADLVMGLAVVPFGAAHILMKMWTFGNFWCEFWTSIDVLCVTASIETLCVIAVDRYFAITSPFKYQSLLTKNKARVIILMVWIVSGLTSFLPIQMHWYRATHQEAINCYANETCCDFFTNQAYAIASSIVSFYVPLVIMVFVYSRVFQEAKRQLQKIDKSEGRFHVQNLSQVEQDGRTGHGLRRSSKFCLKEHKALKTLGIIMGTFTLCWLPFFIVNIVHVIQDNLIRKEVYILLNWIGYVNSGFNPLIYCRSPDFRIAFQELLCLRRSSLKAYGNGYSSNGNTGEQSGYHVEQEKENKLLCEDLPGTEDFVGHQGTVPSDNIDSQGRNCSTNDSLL", "assay": "Displacement of [3H]-CGP12177 from human beta2 ADR expressed in HEK293T cell membrane after 90 mins by scintillation counting"}, "[2]": {"target": "Beta-1 adrenergic receptor (Homo sapiens, UniProt P08588)", "sequence (P08588 whole entry)": "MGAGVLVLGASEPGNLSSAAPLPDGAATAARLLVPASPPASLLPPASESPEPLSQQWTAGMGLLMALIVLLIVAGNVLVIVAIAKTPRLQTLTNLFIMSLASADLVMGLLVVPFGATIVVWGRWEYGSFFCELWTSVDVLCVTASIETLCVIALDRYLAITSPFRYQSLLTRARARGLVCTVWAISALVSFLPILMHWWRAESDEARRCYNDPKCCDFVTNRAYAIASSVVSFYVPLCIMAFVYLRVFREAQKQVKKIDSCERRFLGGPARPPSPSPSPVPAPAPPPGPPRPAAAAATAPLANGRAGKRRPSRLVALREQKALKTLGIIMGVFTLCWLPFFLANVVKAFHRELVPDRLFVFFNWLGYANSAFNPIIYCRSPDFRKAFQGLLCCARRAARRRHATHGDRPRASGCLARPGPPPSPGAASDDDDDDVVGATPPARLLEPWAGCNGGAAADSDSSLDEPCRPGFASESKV", "assay": "biochemical"}, "Oryctolagus cuniculus [3]": {"system": "Oryctolagus cuniculus", "assay": "Anti-glaucoma activity in hypertonic saline-induced hypertensive New Zealand albino rabbit model assessed as decrease in intraocular pressure at 0.25% instilled into eye vitreous measured at 4 hrs post administration by pneumatonometric analysis", "type": "functional, organism-based"}, "Oryctolagus cuniculus [4]": {"system": "Oryctolagus cuniculus", "assay": "Anti-glaucoma activity in hypertonic saline-induced hypertensive New Zealand albino rabbit model assessed as decrease in intraocular pressure at 0.25% instilled into eye vitreous measured at 60 mins post administration by pneumatonometric analysis", "type": "functional"}, "Oryctolagus cuniculus [5]": {"system": "Oryctolagus cuniculus", "assay": "Anti-glaucoma activity in hypertonic saline-induced hypertensive New Zealand albino rabbit model assessed as decrease in intraocular pressure at 0.25% instilled into eye vitreous measured at 2 hrs post administration by pneumatonometric analysis", "type": "functional"}, "Oryctolagus cuniculus [6]": {"system": "Oryctolagus cuniculus", "assay": "Anti-glaucoma activity in hypertonic saline-induced hypertensive New Zealand albino rabbit model assessed as decrease in intraocular pressure at 0.25% instilled into eye vitreous along with 1% DRZ measured at 2 hrs post administration by pneumatonometric analysis", "type": "functional"}, "Oryctolagus cuniculus [7]": {"system": "Oryctolagus cuniculus", "assay": "Anti-glaucoma activity in hypertonic saline-induced hypertensive New Zealand albino rabbit model assessed as decrease in intraocular pressure at 0.25% instilled into eye vitreous along with 1% DRZ measured at 4 hrs post administration by pneumatonometric analysis", "type": "functional, organism-based"}, "Oryctolagus cuniculus [8]": {"system": "Oryctolagus cuniculus", "assay": "Anti-glaucoma activity in hypertonic saline-induced hypertensive New Zealand albino rabbit model assessed as decrease in intraocular pressure at 1% instilled into eye vitreous measured at 60 mins post administration by pneumatonometric analysis relative to DRZ + timolol (1% + 0.25%)", "type": "functional, organism-based"}, "Oryctolagus cuniculus [9]": {"system": "Oryctolagus cuniculus", "assay": "Anti-glaucoma activity in hypertonic saline-induced hypertensive New Zealand albino rabbit model assessed as decrease in intraocular pressure at 1% instilled into eye vitreous measured at 4 hrs post administration by pneumatonometric analysis", "type": "functional"}}, "note": "The source made the active and inactive calls. The calls are words filed in the database; no cut-off is given here."}
{"compound": "NS(=O)(=O)c1ccc(CCNC(=O)c2ccc(OCC(O)CNCCO)cc2)cc1", "note": "(stereo unspecified)", "values": [{"measurement": "Ki", "setting": "Carbonic anhydrase 9", "value": 0.0058, "unit": "µM"}, {"measurement": "Ki", "setting": "[1]", "value": "> 100", "unit": "µM"}, {"measurement": "Ki", "setting": "[2]", "value": "> 100", "unit": "µM"}]}
{"compound": "CNCC(O)COc1ccc(S(=O)(=O)N2CCN(C)CC2)cc1", "note": "(stereo unspecified)", "values": [{"measurement": "Ki", "setting": "Carbonic anhydrase 9", "value": 0.127, "unit": "µM"}, {"measurement": "Ki", "setting": "[1]", "value": "> 100", "unit": "µM"}, {"measurement": "Ki", "setting": "[2]", "value": "> 100", "unit": "µM"}]}
{"compound": "CNCC(O)COc1ccc(S(=O)(=O)NCc2ccccc2)cc1", "note": "(stereo unspecified)", "values": [{"measurement": "Ki", "setting": "Carbonic anhydrase 9", "value": 0.0931, "unit": "µM"}, {"measurement": "Ki", "setting": "[1]", "value": "> 100", "unit": "µM"}, {"measurement": "Ki", "setting": "[2]", "value": 79.4, "unit": "µM"}]}
{"compound": "CNCC(O)COc1ccc(S(=O)(=O)NCCOc2ccccc2)cc1", "note": "(stereo unspecified)", "values": [{"measurement": "Ki", "setting": "Carbonic anhydrase 9", "value": 0.0846, "unit": "µM"}, {"measurement": "Ki", "setting": "[1]", "value": 28.2, "unit": "µM"}, {"measurement": "Ki", "setting": "[2]", "value": 6.61, "unit": "µM"}]}
{"compound": "CC(C)(C)NC[C@H](O)COc1nsnc1N1CCOCC1", "note": "[TIMOLOL]", "values": [{"measurement": "Activity", "setting": "Oryctolagus cuniculus [3]", "value": "inactive"}, {"measurement": "Activity", "setting": "Oryctolagus cuniculus [4]", "value": 5.73, "unit": "mmHg"}, {"measurement": "Activity", "setting": "Oryctolagus cuniculus [5]", "value": 3.54, "unit": "mmHg"}, {"measurement": "Activity", "setting": "Oryctolagus cuniculus [6]", "value": 5, "unit": "mmHg"}, {"measurement": "Activity", "setting": "Oryctolagus cuniculus [7]", "value": "inactive"}]}
{"compound": "NS(=O)(=O)c1ccc(CCNC(=O)c2ccc(OCC(O)CNCc3ccccc3)cc2)cc1", "note": "(stereo unspecified)", "values": [{"measurement": "Ki", "setting": "Carbonic anhydrase 9", "value": 0.0747, "unit": "µM"}, {"measurement": "Ki", "setting": "[1]", "value": "> 100", "unit": "µM"}, {"measurement": "Ki", "setting": "[2]", "value": "> 100", "unit": "µM"}]}
{"compound": "CC(C)NCC(O)COc1ccc(C(=O)NCCc2ccc(S(N)(=O)=O)cc2)cc1", "note": "(stereo unspecified)", "values": [{"measurement": "Ki", "setting": "Carbonic anhydrase 9", "value": 0.0618, "unit": "µM"}, {"measurement": "Ki", "setting": "[1]", "value": "> 100", "unit": "µM"}, {"measurement": "Ki", "setting": "[2]", "value": "> 100", "unit": "µM"}]}
{"compound": "CNCC(O)COc1ccc(S(=O)(=O)NC(C)C(C)C)cc1", "note": "(stereo unspecified)", "values": [{"measurement": "Ki", "setting": "Carbonic anhydrase 9", "value": 0.108, "unit": "µM"}, {"measurement": "Ki", "setting": "[1]", "value": 30.2, "unit": "µM"}, {"measurement": "Ki", "setting": "[2]", "value": 15.5, "unit": "µM"}]}
{"compound": "CNCC(O)COc1ccc(S(=O)(=O)NCCc2ccccc2)cc1", "note": "(stereo unspecified)", "values": [{"measurement": "Activity", "setting": "Oryctolagus cuniculus [8]", "value": "Active"}, {"measurement": "Ki", "setting": "Carbonic anhydrase 9", "value": 0.0592, "unit": "µM"}, {"measurement": "Ki", "setting": "[1]", "value": 39.8, "unit": "µM"}, {"measurement": "Ki", "setting": "[2]", "value": 26.9, "unit": "µM"}]}
{"compound": "CNCC(O)COc1ccc(S(=O)(=O)NC(C)(C)C)cc1.Cl", "note": "(stereo unspecified)", "values": [{"measurement": "Activity", "setting": "Oryctolagus cuniculus [8]", "value": "Active"}, {"measurement": "Ki", "setting": "Carbonic anhydrase 9", "value": 0.0954, "unit": "µM"}, {"measurement": "Ki", "setting": "[1]", "value": 5.01, "unit": "µM"}, {"measurement": "Activity", "setting": "Oryctolagus cuniculus [9]", "value": "3.25 - 3.67 mmHg"}, {"measurement": "Ki", "setting": "[2]", "value": 13.5, "unit": "µM"}]}
{"compound": "CCC(C)NCC(O)COc1ccc(C(=O)NCCc2ccc(S(N)(=O)=O)cc2)cc1", "note": "(stereo unspecified)", "values": [{"measurement": "Ki", "setting": "Carbonic anhydrase 9", "value": 0.0536, "unit": "µM"}, {"measurement": "Ki", "setting": "[1]", "value": "> 100", "unit": "µM"}, {"measurement": "Ki", "setting": "[2]", "value": "> 100", "unit": "µM"}]}
{"compound": "Cl.NS(=O)(=O)c1ccc(CCNC(=O)c2ccc(OCC(O)CN3CCOCC3)cc2)cc1", "note": "(stereo unspecified)", "values": [{"measurement": "Activity", "setting": "Oryctolagus cuniculus [8]", "value": "Active"}, {"measurement": "Ki", "setting": "Carbonic anhydrase 9", "value": 0.007, "unit": "µM"}, {"measurement": "Ki", "setting": "[1]", "value": "> 100", "unit": "µM"}, {"measurement": "Activity", "setting": "Oryctolagus cuniculus [9]", "value": "3.25 - 3.67 mmHg"}, {"measurement": "Ki", "setting": "[2]", "value": "> 100", "unit": "µM"}]}
{"compound": "CNCC(O)COc1ccc(S(=O)(=O)NC(C)C)cc1.Cl", "note": "(stereo unspecified)", "values": [{"measurement": "Activity", "setting": "Oryctolagus cuniculus [8]", "value": "Active"}, {"measurement": "Ki", "setting": "Carbonic anhydrase 9", "value": 0.0476, "unit": "µM"}, {"measurement": "Ki", "setting": "[1]", "value": 31.6, "unit": "µM"}, {"measurement": "Activity", "setting": "Oryctolagus cuniculus [9]", "value": "3.25 - 3.67 mmHg"}, {"measurement": "Ki", "setting": "[2]", "value": 10.5, "unit": "µM"}]}
{"compound": "CNCC(O)COc1ccc(S(N)(=O)=O)cc1", "note": "(stereo unspecified)", "values": [{"measurement": "Ki", "setting": "Carbonic anhydrase 9", "value": 0.0234, "unit": "µM"}, {"measurement": "Ki", "setting": "[1]", "value": "> 100", "unit": "µM"}, {"measurement": "Ki", "setting": "[2]", "value": "> 100", "unit": "µM"}]}
{"compound": "CCCNCC(O)COc1ccc(C(=O)NCCc2ccc(S(N)(=O)=O)cc2)cc1", "note": "(stereo unspecified)", "values": [{"measurement": "Ki", "setting": "Carbonic anhydrase 9", "value": 0.0074, "unit": "µM"}, {"measurement": "Ki", "setting": "[1]", "value": "> 100", "unit": "µM"}, {"measurement": "Ki", "setting": "[2]", "value": "> 100", "unit": "µM"}]}
{"compound": "CCNCC(O)COc1ccc(C(=O)NCCc2ccc(S(N)(=O)=O)cc2)cc1", "note": "(stereo unspecified)", "values": [{"measurement": "Ki", "setting": "Carbonic anhydrase 9", "value": 0.0221, "unit": "µM"}, {"measurement": "Ki", "setting": "[1]", "value": "> 100", "unit": "µM"}, {"measurement": "Ki", "setting": "[2]", "value": "> 100", "unit": "µM"}]}
{"compound": "CNCC(O)COc1ccc(C(=O)NCCc2ccc(S(N)(=O)=O)cc2)cc1", "note": "(stereo unspecified)", "values": [{"measurement": "Ki", "setting": "Carbonic anhydrase 9", "value": 0.0017, "unit": "µM"}, {"measurement": "Ki", "setting": "[1]", "value": "> 100", "unit": "µM"}, {"measurement": "Ki", "setting": "[2]", "value": "> 100", "unit": "µM"}]}
{"compound": "CC(C)(C)NCC(O)COc1ccc(C(=O)NCCc2ccc(S(N)(=O)=O)cc2)cc1", "note": "(stereo unspecified)", "values": [{"measurement": "Ki", "setting": "Carbonic anhydrase 9", "value": 0.0831, "unit": "µM"}, {"measurement": "Ki", "setting": "[1]", "value": "> 100", "unit": "µM"}, {"measurement": "Ki", "setting": "[2]", "value": "> 100", "unit": "µM"}]}
{"compound": "CC(C)N(CC(O)COc1ccc(C(=O)NCCc2ccc(S(N)(=O)=O)cc2)cc1)C(C)C", "note": "(stereo unspecified)", "values": [{"measurement": "Ki", "setting": "Carbonic anhydrase 9", "value": 0.006, "unit": "µM"}, {"measurement": "Ki", "setting": "[1]", "value": "> 100", "unit": "µM"}, {"measurement": "Ki", "setting": "[2]", "value": "> 100", "unit": "µM"}]}
